Source: patent US20220176011A1, “SCAR REDUCING WOUND CLOSURE MATERIALS” (Lankenau Institute for Medical Research, priority 2019, published 2022)

System: HIF1a protein activity
Test: In vitro drug release from suture into DMEM medium, read out by HIF1a luciferase assay
Format: cell-based
Description: FIG. 1 is a graph plotting drug release in vitro from poly(lactic acid)/poly(lactic-co-glycolic acid (PLA/PLGA) sutures over time. Briefly, a mixture of PLA and PLA/GPLA suture was infused with 1,4-DPCA molecules during generation of the sutures. The concentration of DPCA was in all cases 5 mg/100 mg suture material as described below. The sutures, having different ratios of PLA and PLA/PLGA as described below, were tested for rate of drug release. Drug release was measured by HIF levels. The sutures were soaked in medium without serum for 24 hours and transferred to new medium for each timepoint identified on the graph. The medium was tested for HIF1a protein activity in a luciferase assay. The horizontal lines are controls as noted: at about 10000 luminescence units (LU) is a control for DMEM only; at about 18000 LU is a control for 25 μM DCPA; at about 29500 LU is a control for 50 μM DCPA; at about 39000 LU is a control for 100 μM DCPA; and at about 40500 LU is a control for 200 μM DCPA. The curve that is substantially at 10000 LU but dips below at day 12 represents a mixture of PLA and PLA/PLGA [50:50] at a ratio of 75 PLA:25 PLA/PLGA. The curve that starts below 10000 LU and increases to about 15000 LU at day 14.5 is PLA and PLA/PLGA [50:50] at a ratio of 75:25+DPCA. The curve that starts above 50000 and has a peak at day 15 above 40000 LU is PLA and PLA/PLGA[50:50] at a ratio of 50:50+DPCA. The curve that starts above 50000 LU and has a peak at day 7.5 at about 34000 LU represents PLA and PLA/PLGA [50:50] at a ratio of 75:25+DPCA.
A PLA/PGLA suture, infused with 1,4-DPCA molecules during generation of the sutures as described in Example 1 (i.e., materials are melted, DPCA added, and the final mixture cooled and pulled into sutures), was tested for rate of release of 1,4-DPCA into DMEM medium. Drug release was measured by HIF levels. The sutures were soaked in medium without serum for 24 hours and transferred to new medium for each timepoint (1 hour, 3 hours, Days 1, 2, 3, 6, 7, 8, 9, 10, 13, 14, 15, 16, 17 and 20). The medium was tested for HIF1a protein activity in a luciferase assay (Signosis, Inc) as described in ESKLA, K-L et al, Hypothermia augments stress response in mammalian cells. Free Radical Biology and Medicine, 2018 doi:10.1016/j.freeradbiomed.2018.04.571.
The results are shown in the graph at FIG. 1. The two heavy lines represented PLA/PLGA[50:50] 50:50+DPCA and PLA/PLGA[50:50] 75:25+DPCA are shown releasing the drug after one hour in the medium up to about 15 days in the medium after which the drug detection falls under the DMEM control.

**Q.** `O=C(O)c1c[nH]c2c(ccc3cccnc32)c1=O` [DCPA, 1,4-dihydrophenonthrolin-4-one-3-carboxylic acid] was tested. Which “luminescence (HIF1a luciferase assay), control line” value (shortened to “luminescence”) (25 μM free drug control) did it give?
**A.** about 18000 LU

**Q.** What about the “luminescence” value (50 μM free drug control) of the same compound?
**A.** about 29500 LU

**Q.** What about the “luminescence” value (100 μM free drug control) of the same compound?
**A.** about 39000 LU

**Q.** What about the “luminescence” value (200 μM free drug control) of the same compound?
**A.** about 40500 LU
